Like-named read-outs stand apart in the source and are kept apart here.
Tested on: Myc
Test: Myc inhibition assay: Myc expression per cell by anti-Myc immunofluorescence, high-content imaging
Assay type: cell-based, human (patient-derived medulloblastoma xenograft cells)
Details: medulloblastoma PDX cells, 4 h
Summary of the method: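 Cells from Myc-driven medulloblastoma patient-derived orthotopic xenografts, propagated only in NSG mouse cerebellum, were dissociated and plated in serum-free medium. After overnight recovery, compounds were applied for 4 hours; cells were then fixed, stained for Myc and DAPI, and per-cell Myc quantified by high-content imaging to derive IC50.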

[1] = Table 1, read-out: IC50 (Myc inhibition)
[2] = Table 2, read-out: MYC Inhibition IC50

Row | SMILES | IC50 [1] | IC50 [2]
1 | c1cc(Nc2nccc(-c3ccc4[nH]cnc4c3)n2)cc(-c2nnn[nH]2)c1 [Compound 267, N-(3-(1H-tetrazol-5-yl)phenyl)-4-(1H-benzo[d]imidazol-5-yl)pyrimidin-2-amine] | < 0.2 µM | < 0.2 µM
2 | FC(F)(F)Oc1cccc(Nc2nccc(-c3ccc4[nH]cnc4c3)n2)c1 [Compound 100, 4-(1H-benzo[d]imidazol-5-yl)-N-(3-(trifluoromethoxy)phenyl)pyrimidin-2-amine] | 0.2 to 1 µM | 0.2 to 1 µM
3 | FC(F)(F)c1cccc(Nc2nccc(-c3ccc4scnc4c3)n2)c1 [Compound 76, 4-(benzo[d]thiazol-5-yl)-N-(3-(trifluoromethyl)phenyl)pyrimidin-2-amine] | 1 to 10 µM | 1 to 10 µM
4 | CN(c1ccccc1)c1ncnc(-c2ccnc(O)c2)n1 [Compound 215, 4-(4-(methyl(phenyl)amino)-1,3,5-triazin-2-yl)pyridin-2-ol] | 10 to 100 µM | 10 to 100 µM
5 | COc1cc(-c2ccnc(Cc3ccccc3)n2)ccn1 [Compound 230, 2-Benzyl-4-(2-methoxypyridin-4-yl)pyrimidine] | 10 to 100 µM | 10 to 100 µM
6 | Oc1cc(-c2ccnc(Nc3cccnc3)n2)ccn1 [Compound 188, 4-(2-(pyridin-3-ylamino)pyrimidin-4-yl)pyridin-2-ol] | 1 to 10 µM | 1 to 10 µM
7 | COc1cc(-c2ccnc(Sc3ccccc3)n2)ccn1 [Compound 234, 4-(2-methoxypyridin-4-yl)-2-(phenylthio)pyrimidine] | 0.2 to 1 µM | 0.2 to 1 µM
8 | FC(F)(F)c1cccc(Nc2nccc(-c3ccc4[nH]cnc4c3)n2)c1 [Compound 50] | 1 to 10 µM | 1 to 10 µM
9 | CC(C)(C)NS(=O)(=O)c1cccc(Nc2nccc(-c3ccc4[nH]cnc4c3)n2)c1 [Compound 32, 3-((4-(1H-benzo[d]imidazol-5-yl)pyrimidin-2-yl)amino)-N-(tert-butyl)benzenesulfonamide] | 0.2 to 1 µM | 0.2 to 1 µM
10 | c1ccc(Cn2cc(Nc3nccc(-c4ccc5[nH]cnc5c4)n3)cn2)cc1 [Compound 37, 4-(1H-benzo[d]imidazol-5-yl)-N-(1-benzyl-1H-pyrazol-4-yl)pyrimidin-2-amine] | 0.2 to 1 µM | 0.2 to 1 µM
11 | Clc1cc(Cl)cc(Nc2nccc(-c3ccc4[nH]cnc4c3)n2)c1 [Compound 49, 4-(1H-benzo[d]imidazol-5-yl)-N-(3,5-dichlorophenyl)pyrimidin-2-amine] | 1 to 10 µM | 1 to 10 µM
12 | Fc1cncc(Nc2nccc(-c3ccc4[nH]cnc4c3)n2)c1 [Compound 83, 4-(1H-benzo[d]imidazol-5-yl)-N-(5-fluoropyridin-3-yl)pyrimidin-2-amine] | 1 to 10 µM | 1 to 10 µM
13 | CS(=O)(=O)Nc1cccc(Nc2nccc(-c3ccc4[nH]cnc4c3)n2)c1 [Compound 255, N-(3-((4-(1H-benzo[d]imidazol-5-yl)pyrimidin-2-yl)amino)phenyl)methanesulfonamide] | 1 to 10 µM | 1 to 10 µM
14 | Fc1cccc(Nc2nccc(-c3ccn4nccc4n3)n2)c1 [Compound 270, N-(3-fluorophenyl)-4-(pyrazolo[1,5-a]pyrimidin-5-yl)pyrimidin-2-amine] | 1 to 10 µM | 1 to 10 µM
15 | c1coc(CNc2nccc(-c3ccc4[nH]cnc4c3)n2)c1 [Compound 85, 4-(1H-benzo[d]imidazol-5-yl)-N-(furan-2-ylmethyl)pyrimidin-2-amine] | 1 to 10 µM | 1 to 10 µM
16 | NCCCOc1cccc(Nc2nccc(-c3ccc4[nH]cnc4c3)n2)c1 [Compound 91, N-(3-(3-aminopropoxy)phenyl)-4-(1H-benzo[d]imidazol-5-yl)pyrimidin-2-amine] | 0.2 to 1 µM | 0.2 to 1 µM
17 | Fc1cc2[nH]cnc2cc1-c1ccnc(Nc2cccc(C(F)(F)F)c2)n1 [Compound 126, 4-(6-fluoro-1H-benzo[d]imidazol-5-yl)-N-(3-(trifluoromethyl)phenyl)pyrimidin-2-amine] | 0.2 to 1 µM | 0.2 to 1 µM
18 | c1csc(CNc2nccc(-c3ccc4[nH]cnc4c3)n2)c1 [Compound 75, 4-(1H-benzo[d]imidazol-5-yl)-N-(thiophen-2-ylmethyl)pyrimidin-2-amine] | 1 to 10 µM | 1 to 10 µM
19 | COc1ccc(Nc2ccnc(Nc3cccc(F)c3)n2)cn1 [Compound 108, N^2-(3-fluorophenyl)-N^4-(6-methoxypyridin-3-yl)pyrimidine-2,4-diamine] | 1 to 10 µM | 1 to 10 µM
20 | Cc1cc(Cl)cc(Nc2nccc(-c3ccc4nc[nH]c4c3)n2)c1 [Compound 274, 4-(1H-benzo[d]imidazol-6-yl)-N-(3-chloro-5-methylphenyl)pyrimidin-2-amine] | < 0.2 µM | < 0.2 µM
21 | Fc1cc(-c2ccnc(Nc3cccc(C(F)(F)F)c3)n2)cc2nc[nH]c12 [Compound 115, 4-(7-fluoro-1H-benzo[d]imidazol-5-yl)-N-(3-(trifluoromethyl)phenyl)pyrimidin-2-amine] | < 0.2 µM | < 0.2 µM

Row | SMILES | IC50 [1] | IC50 [2]
22 | c1cc(Nc2nccc(-c3ccc4[nH]cnc4c3)n2)[nH]n1 [Compound 57, 4-(1H-benzo[d]imidazol-5-yl)-N-(1H-pyrazol-5-yl)pyrimidin-2-amine] | 1 to 10 µM | 1 to 10 µM
23 | COc1cc(-c2ccnc(Oc3ccccc3)n2)ccn1 [Compound 235, 4-(2-methoxypyridin-4-yl)-2-phenoxypyrimidine] | 10 to 100 µM | 10 to 100 µM
24 | Cc1cnc(Nc2cccc(C(F)(F)F)c2)nc1-c1cnc2nc[nH]c2c1 [Compound 113, 4-(1H-imidazo[4,5-b]pyridin-6-yl)-5-methyl-N-(3-(trifluoromethyl)phenyl)pyrimidin-2-amine] | 1 to 10 µM | 1 to 10 µM
25 | CC(C)C(=O)Nc1cccc(Nc2nccc(-c3ccc4[nH]cnc4c3)n2)c1 [Compound 257, N-(3-((4-(1H-benzo[d]imidazol-5-yl)pyrimidin-2-yl)amino)phenyl)isobutyramide] | 0.2 to 1 µM | 0.2 to 1 µM
26 | O=C(Nc1cccc(Nc2nccc(-c3ccc4[nH]cnc4c3)n2)c1)c1ccccc1 [Compound 1, N-(3-((4-(1H-benzo[d]imidazol-5-yl)pyrimidin-2-yl)amino)phenyl)benzamide] | < 0.2 µM | < 0.2 µM
27 | Oc1cccc(Nc2nccc(-c3ccc4[nH]cnc4c3)n2)n1 [Compound 22, 6-((4-(1H-benzo[d]imidazol-5-yl)pyrimidin-2-yl)amino)pyridin-2-ol] | 10 to 100 µM | 10 to 100 µM
28 | Oc1cc(-c2ccnc(Nc3cccc(C(F)(F)F)n3)n2)ccn1 [Compound 167, 4-(2-((6-(trifluoromethyl)pyridin-2-yl)amino)pyrimidin-4-yl)pyridin-2-ol] | 10 to 100 µM | 10 to 100 µM
29 | COc1ncc(-c2ccnc(Nc3cccc(F)c3)n2)s1 [Compound 180, N-(3-fluorophenyl)-4-(2-methoxythiazol-5-yl)pyrimidin-2-amine] | 1 to 10 µM | 1 to 10 µM
30 | Oc1cc(-c2ccnc(Nc3cncc(F)c3)n2)ccn1 [Compound 145, 4-(2-((5-fluoropyridin-3-yl)amino)pyrimidin-4-yl)pyridin-2-ol] | 1 to 10 µM | 1 to 10 µM
31 | Oc1cc(-c2ccnc(Nc3ccccc3F)n2)ccn1 [Compound 207, 4-(2-((2-fluorophenyl)amino)pyrimidin-4-yl)pyridin-2-ol] | 10 to 100 µM | 10 to 100 µM
32 | COc1ccc(Oc2ccnc(Nc3cccc(C(F)(F)F)c3)n2)cn1 [Compound 109, 4-((6-methoxypyridin-3-yl)oxy)-N-(3-(trifluoromethyl)phenyl)pyrimidin-2-amine] | 1 to 10 µM | 1 to 10 µM
33 | COc1cncc(-c2ccnc(Nc3cccc(F)c3)n2)c1 [Compound 203, N-(3-fluorophenyl)-4-(5-methoxypyridin-3-yl)pyrimidin-2-amine] | 0.2 to 1 µM | 0.2 to 1 µM
34 | Fc1cnc(Nc2cccc(C(F)(F)F)n2)cc1-c1ccc2nc[nH]c2c1 [Compound 279, 4-(1H-benzo[d]imidazol-6-yl)-5-fluoro-N-(6-(trifluoromethyl)pyridin-2-yl)pyridin-2-amine] | < 0.2 µM | < 0.2 µM
35 | Oc1ccc(-c2ccnc(Nc3cccc(F)c3)n2)cc1 [Compound 194, 4-(2-((3-fluorophenyl)amino)pyrimidin-4-yl)phenol] | 1 to 10 µM | 1 to 10 µM
36 | CN(c1ccccc1)c1nccc(-c2cccc(O)n2)n1 [Compound 225, 6-(2-(methyl(phenyl)amino)pyrimidin-4-yl)pyridin-2-ol] | 10 to 100 µM | 10 to 100 µM
37 | O=S(=O)(NC1CC1)c1cccc(Nc2nccc(-c3ccc4[nH]cnc4c3)n2)c1 [Compound 24, 3-((4-(1H-benzo[d]imidazol-5-yl)pyrimidin-2-yl)amino)-N-cyclopropylbenzenesulfonamide] | 0.2 to 1 µM | 0.2 to 1 µM
38 | Oc1cc(-c2ccnc(Nc3ccc(F)c(F)c3)n2)ccn1 [Compound 209, 4-(2-((3,4-difluorophenyl)amino)pyrimidin-4-yl)pyridin-2-ol] | 1 to 10 µM | 1 to 10 µM
39 | COc1nccc(-c2ccnc(Nc3ccccc3)n2)n1 [Compound 163, 2′-Methoxy-N-phenyl-[4,4′-bipyrimidin]-2-amine] | 10 to 100 µM | 10 to 100 µM
40 | c1ccc(-n2cc(Nc3nccc(-c4ccc5[nH]cnc5c4)n3)cn2)nc1 [Compound 35, 4-(1H-benzo[d]imidazol-5-yl)-N-(1-(pyridin-2-yl)-1H-pyrazol-4-yl)pyrimidin-2-amine] | < 0.2 µM | < 0.2 µM
41 | O=S(=O)(c1cccc(Nc2nccc(-c3ccc4[nH]cnc4c3)n2)c1)C(F)(F)F [Compound 260, 4-(1H-benzo[d]imidazol-5-yl)-N-(3-((trifluoromethyl)sulfonyl)phenyl)pyrimidin-2-amine] | < 0.2 µM | < 0.2 µM
42 | c1cncc(-c2cccc(Nc3nccc(-c4ccc5[nH]cnc5c4)n3)c2)c1 [Compound 45, 4-(1H-benzo[d]imidazol-5-yl)-N-(3-(pyridin-3-yl)phenyl)pyrimidin-2-amine] | < 0.2 µM | < 0.2 µM

— patent publication US20260356817A1, “AMINOPYRIMIDINE AND AMINOTRIAZINE DERIVATIVES AS MYC PROTEIN MODULATORS” (Sanford Burnham Prebys Medical Discovery Institute, priority 2022, published 2026)
